Measured values published in the NIST ThermoML archive (doi:10.1016/j.fluid.2014.04.027).
± gives the expanded uncertainty stated by the source.

Experiment: xn = mol fraction of the nth substance listed
Conditions: 100 kPa, Liquid, Alternating current cell with electrodes

CCCCCCCCCCCCOS(=O)(=O)[O-].[Na+] [sodium dodecyl sulfate] + O
electrical conductivity [S/m]
Conditions | 298.15 K | 308.15 K | 318.15 K
x1 = 6.348e-05 | 0.024 ± 0.00096 | 0.0249 ± 0.001 | 0.0283 ± 0.0011
x1 = 6.643e-05 | 0.0245 ± 0.00098 | 0.0255 ± 0.001 | 0.029 ± 0.0012
x1 = 6.967e-05 | 0.0252 ± 0.001 | 0.0264 ± 0.0011 | 0.0298 ± 0.0012
x1 = 7.324e-05 | 0.0261 ± 0.001 | 0.0273 ± 0.0011 | 0.0306 ± 0.0012
x1 = 7.72e-05 | 0.0269 ± 0.0011 | 0.0282 ± 0.0011 | 0.0317 ± 0.0013
x1 = 8.16e-05 | 0.0278 ± 0.0011 | 0.0292 ± 0.0012 | 0.0329 ± 0.0013
x1 = 8.4e-05 | 0.0284 ± 0.0011 | 0.0298 ± 0.0012 | 0.0334 ± 0.0013
x1 = 8.655e-05 | 0.0291 ± 0.0012 | 0.0304 ± 0.0012 | 0.034 ± 0.0014
x1 = 8.925e-05 | 0.0297 ± 0.0012 | 0.0311 ± 0.0012 | 0.0347 ± 0.0014
x1 = 9.213e-05 | 0.0305 ± 0.0012 | 0.0317 ± 0.0013 | 0.0355 ± 0.0014
x1 = 9.519e-05 | 0.0311 ± 0.0012 | 0.0323 ± 0.0013 | 0.0362 ± 0.0014
x1 = 9.847e-05 | 0.0317 ± 0.0013 | 0.0332 ± 0.0013 | 0.0371 ± 0.0015
x1 = 0.000102 | 0.0327 ± 0.0013 | 0.0339 ± 0.0014 | 0.038 ± 0.0015
x1 = 0.0001058 | 0.0335 ± 0.0013 | 0.0349 ± 0.0014 | 0.0389 ± 0.0016
x1 = 0.0001098 | 0.0345 ± 0.0014 | 0.0359 ± 0.0014 | 0.04 ± 0.0016
x1 = 0.0001142 | 0.0353 ± 0.0014 | 0.037 ± 0.0015 | 0.0412 ± 0.0016
x1 = 0.000119 | 0.0365 ± 0.0015 | 0.0382 ± 0.0015 | 0.0424 ± 0.0017
x1 = 0.0001241 | 0.0375 ± 0.0015 | 0.0394 ± 0.0016 | 0.0436 ± 0.0018
x1 = 0.0001298 | 0.0388 ± 0.0015 | 0.0408 ± 0.0016 | 0.045 ± 0.0018
x1 = 0.0001359 | 0.0401 ± 0.0016 | 0.0423 ± 0.0017 | 0.0465 ± 0.0019
x1 = 0.0001427 | 0.0414 ± 0.0017 | 0.0439 ± 0.0018 | 0.0481 ± 0.0019
x1 = 0.0001502 | – | 0.0455 ± 0.0018 | 0.0498 ± 0.002
x1 = 0.0001586 | – | – | 0.052 ± 0.0021
